The target in one test is T1, Thromboxane A2 receptor (Homo sapiens, UniProt P21731).
T1 sequence (P21731 whole entry): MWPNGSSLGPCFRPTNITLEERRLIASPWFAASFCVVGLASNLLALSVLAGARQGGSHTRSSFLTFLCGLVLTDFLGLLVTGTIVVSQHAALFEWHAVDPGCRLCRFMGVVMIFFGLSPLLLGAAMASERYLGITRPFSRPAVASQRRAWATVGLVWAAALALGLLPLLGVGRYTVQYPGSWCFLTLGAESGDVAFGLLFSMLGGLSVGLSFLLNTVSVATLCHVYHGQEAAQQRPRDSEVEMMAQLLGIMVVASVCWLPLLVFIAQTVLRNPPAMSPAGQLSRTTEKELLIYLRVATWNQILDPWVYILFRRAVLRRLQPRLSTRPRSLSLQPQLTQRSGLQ
Type of test: functional, cell-based.

Test [1] addresses Prostaglandin G/H synthase 1 (Homo sapiens, UniProt P23219). Type of test: functional.
The target of a further test is D(3) dopamine receptor (Homo sapiens, UniProt P35462).
Test [2] concerns the target T2, Amine oxidase [flavin-containing] A (Homo sapiens, UniProt P21397).
T2 sequence (P21397 whole entry): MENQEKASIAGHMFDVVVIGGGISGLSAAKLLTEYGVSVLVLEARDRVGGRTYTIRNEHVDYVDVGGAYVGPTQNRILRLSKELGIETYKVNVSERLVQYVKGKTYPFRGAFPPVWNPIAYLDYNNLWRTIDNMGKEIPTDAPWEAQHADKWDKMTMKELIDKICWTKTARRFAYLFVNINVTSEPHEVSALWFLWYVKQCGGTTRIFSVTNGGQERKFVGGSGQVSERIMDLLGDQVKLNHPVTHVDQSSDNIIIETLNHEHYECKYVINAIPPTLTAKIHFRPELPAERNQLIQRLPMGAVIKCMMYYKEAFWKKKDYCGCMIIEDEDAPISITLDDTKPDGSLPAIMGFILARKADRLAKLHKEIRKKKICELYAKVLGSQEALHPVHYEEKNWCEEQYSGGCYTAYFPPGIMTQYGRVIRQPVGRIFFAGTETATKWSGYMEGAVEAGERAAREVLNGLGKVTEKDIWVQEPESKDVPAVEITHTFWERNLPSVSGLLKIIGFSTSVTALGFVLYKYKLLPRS
Type of test: functional.

A further test has as its target Acetylcholinesterase (Homo sapiens, UniProt P22303). Type of test: functional.
The target in test [3] is 5-hydroxytryptamine receptor 2B (Homo sapiens, UniProt P41595). Type of test: functional, cell-based.
Test [4] addresses T3, 5-hydroxytryptamine receptor 1A (Homo sapiens, UniProt P08908).
T3 sequence (P08908 whole entry): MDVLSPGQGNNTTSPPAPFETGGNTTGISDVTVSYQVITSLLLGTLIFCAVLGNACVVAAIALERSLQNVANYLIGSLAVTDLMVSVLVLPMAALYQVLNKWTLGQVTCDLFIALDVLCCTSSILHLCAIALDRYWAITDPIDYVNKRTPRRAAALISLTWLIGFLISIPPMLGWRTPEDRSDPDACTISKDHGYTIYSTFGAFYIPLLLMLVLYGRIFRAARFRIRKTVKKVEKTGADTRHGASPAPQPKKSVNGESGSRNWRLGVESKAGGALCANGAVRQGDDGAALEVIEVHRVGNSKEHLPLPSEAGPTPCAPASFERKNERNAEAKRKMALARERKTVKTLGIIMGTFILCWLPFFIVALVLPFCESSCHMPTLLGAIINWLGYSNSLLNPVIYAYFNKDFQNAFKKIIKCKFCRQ

The target of a further test is T4, Estrogen receptor (Homo sapiens, UniProt P03372).
T4 sequence (P03372 whole entry): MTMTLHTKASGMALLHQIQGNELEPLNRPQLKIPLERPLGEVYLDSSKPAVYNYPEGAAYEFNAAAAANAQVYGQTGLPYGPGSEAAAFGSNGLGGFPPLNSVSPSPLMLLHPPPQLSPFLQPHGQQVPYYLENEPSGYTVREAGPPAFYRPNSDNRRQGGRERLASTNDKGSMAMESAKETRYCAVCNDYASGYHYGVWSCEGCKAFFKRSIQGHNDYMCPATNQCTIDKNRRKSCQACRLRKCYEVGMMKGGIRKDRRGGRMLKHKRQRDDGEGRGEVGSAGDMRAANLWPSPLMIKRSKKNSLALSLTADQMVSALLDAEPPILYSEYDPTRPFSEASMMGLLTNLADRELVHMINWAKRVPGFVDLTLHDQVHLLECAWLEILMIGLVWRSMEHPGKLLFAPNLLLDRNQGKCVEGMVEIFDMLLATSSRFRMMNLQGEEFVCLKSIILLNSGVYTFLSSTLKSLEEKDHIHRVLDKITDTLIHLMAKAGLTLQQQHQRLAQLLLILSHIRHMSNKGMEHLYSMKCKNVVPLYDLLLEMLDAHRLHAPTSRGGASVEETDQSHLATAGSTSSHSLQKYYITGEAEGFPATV

The target in a further test is Prothrombin (Homo sapiens, UniProt P00734). Type of test: functional.
For test [5], the target named is Sodium-dependent serotonin transporter (Homo sapiens, UniProt P31645).
The next test addresses T5, Adenosine receptor A3 (Homo sapiens, UniProt P0DMS8).
T5 sequence (P0DMS8 whole entry): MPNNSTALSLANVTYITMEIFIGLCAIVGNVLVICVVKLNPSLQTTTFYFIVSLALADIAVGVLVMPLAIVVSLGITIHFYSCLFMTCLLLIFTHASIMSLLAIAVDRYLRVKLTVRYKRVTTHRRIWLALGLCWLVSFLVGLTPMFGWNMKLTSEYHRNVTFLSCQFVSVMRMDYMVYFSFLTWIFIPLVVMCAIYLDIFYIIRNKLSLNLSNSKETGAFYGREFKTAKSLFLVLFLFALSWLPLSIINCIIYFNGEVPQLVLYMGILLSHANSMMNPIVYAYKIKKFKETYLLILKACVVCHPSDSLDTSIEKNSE

Test [6] deals with Sodium-dependent noradrenaline transporter (Homo sapiens, UniProt P23975).
For test [7], the target named is Sodium-dependent dopamine transporter (Homo sapiens, UniProt Q01959).
The target of test [8] is cGMP-inhibited 3',5'-cyclic phosphodiesterase 3A (Homo sapiens, UniProt Q14432). Type of test: functional.
Test [9] concerns the target Vascular endothelial growth factor receptor 2 (Homo sapiens, UniProt P35968). Type of test: functional.
The target of test [10] is Voltage-gated inwardly rectifying potassium channel KCNH2 (Homo sapiens, UniProt Q12809). Type of test: functional. The settings on record: read-out: AC50.

The AC50 is the midpoint of the concentration-response curve, whichever way the signal moves.
Further: assay procedure not described here.

Acetylcholinesterase, sequence (P22303 whole entry): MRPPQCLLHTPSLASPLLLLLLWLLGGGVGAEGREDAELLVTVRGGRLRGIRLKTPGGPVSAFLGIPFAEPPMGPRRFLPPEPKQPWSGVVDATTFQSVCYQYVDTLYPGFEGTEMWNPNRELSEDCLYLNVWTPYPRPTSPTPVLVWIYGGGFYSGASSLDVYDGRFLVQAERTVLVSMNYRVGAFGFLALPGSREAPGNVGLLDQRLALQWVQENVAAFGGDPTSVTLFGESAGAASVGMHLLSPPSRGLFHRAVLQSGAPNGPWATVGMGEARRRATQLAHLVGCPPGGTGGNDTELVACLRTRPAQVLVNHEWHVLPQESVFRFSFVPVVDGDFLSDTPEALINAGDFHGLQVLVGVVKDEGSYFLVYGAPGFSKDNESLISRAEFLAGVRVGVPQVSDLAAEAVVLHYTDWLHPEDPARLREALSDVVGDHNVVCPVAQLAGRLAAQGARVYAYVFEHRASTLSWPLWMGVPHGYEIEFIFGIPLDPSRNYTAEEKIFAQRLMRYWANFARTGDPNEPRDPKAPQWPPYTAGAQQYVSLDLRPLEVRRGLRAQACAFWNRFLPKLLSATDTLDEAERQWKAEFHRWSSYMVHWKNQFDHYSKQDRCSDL
Sodium-dependent serotonin transporter, sequence (P31645 whole entry): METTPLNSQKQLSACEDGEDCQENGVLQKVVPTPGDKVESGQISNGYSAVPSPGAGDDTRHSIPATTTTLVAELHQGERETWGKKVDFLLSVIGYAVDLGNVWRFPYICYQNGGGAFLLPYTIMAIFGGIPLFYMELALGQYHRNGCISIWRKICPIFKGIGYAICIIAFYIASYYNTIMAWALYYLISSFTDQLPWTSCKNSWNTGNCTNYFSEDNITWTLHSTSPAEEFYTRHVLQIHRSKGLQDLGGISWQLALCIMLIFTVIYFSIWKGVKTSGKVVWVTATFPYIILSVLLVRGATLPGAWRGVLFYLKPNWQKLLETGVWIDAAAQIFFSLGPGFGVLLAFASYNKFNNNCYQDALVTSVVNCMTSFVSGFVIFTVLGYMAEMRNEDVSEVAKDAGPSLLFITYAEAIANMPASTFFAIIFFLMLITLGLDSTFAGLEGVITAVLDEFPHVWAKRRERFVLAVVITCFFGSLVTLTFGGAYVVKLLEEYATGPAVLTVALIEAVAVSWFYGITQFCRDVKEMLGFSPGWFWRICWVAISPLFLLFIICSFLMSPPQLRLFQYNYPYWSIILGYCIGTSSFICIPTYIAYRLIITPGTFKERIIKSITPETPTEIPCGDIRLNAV
D(3) dopamine receptor, sequence (P35462 whole entry): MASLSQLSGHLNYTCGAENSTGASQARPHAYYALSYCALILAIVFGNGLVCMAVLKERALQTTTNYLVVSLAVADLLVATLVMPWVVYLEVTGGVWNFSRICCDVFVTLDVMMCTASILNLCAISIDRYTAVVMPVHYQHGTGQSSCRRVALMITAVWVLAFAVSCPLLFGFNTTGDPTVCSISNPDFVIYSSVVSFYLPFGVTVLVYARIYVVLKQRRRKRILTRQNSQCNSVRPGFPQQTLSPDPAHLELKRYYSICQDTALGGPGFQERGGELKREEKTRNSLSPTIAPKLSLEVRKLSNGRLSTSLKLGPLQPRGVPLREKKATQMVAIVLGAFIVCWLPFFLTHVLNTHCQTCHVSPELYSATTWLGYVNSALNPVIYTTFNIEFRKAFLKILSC
Prostaglandin G/H synthase 1, sequence (P23219 whole entry): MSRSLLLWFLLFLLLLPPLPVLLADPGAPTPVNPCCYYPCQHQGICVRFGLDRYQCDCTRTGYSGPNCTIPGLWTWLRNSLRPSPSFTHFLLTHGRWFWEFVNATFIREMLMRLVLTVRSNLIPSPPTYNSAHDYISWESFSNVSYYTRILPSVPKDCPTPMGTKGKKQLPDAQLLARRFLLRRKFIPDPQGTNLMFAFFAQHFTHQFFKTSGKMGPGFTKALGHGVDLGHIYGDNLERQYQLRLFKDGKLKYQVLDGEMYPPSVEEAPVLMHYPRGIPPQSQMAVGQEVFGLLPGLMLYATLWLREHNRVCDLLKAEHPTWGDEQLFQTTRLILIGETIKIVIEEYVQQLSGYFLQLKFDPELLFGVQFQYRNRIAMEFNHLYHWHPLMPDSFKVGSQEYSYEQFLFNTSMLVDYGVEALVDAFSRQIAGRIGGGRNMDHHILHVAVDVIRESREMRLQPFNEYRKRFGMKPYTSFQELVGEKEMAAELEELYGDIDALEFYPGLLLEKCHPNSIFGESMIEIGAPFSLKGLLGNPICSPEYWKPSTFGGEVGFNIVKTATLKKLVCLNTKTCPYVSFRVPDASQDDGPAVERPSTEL
Vascular endothelial growth factor receptor 2, sequence (P35968 whole entry): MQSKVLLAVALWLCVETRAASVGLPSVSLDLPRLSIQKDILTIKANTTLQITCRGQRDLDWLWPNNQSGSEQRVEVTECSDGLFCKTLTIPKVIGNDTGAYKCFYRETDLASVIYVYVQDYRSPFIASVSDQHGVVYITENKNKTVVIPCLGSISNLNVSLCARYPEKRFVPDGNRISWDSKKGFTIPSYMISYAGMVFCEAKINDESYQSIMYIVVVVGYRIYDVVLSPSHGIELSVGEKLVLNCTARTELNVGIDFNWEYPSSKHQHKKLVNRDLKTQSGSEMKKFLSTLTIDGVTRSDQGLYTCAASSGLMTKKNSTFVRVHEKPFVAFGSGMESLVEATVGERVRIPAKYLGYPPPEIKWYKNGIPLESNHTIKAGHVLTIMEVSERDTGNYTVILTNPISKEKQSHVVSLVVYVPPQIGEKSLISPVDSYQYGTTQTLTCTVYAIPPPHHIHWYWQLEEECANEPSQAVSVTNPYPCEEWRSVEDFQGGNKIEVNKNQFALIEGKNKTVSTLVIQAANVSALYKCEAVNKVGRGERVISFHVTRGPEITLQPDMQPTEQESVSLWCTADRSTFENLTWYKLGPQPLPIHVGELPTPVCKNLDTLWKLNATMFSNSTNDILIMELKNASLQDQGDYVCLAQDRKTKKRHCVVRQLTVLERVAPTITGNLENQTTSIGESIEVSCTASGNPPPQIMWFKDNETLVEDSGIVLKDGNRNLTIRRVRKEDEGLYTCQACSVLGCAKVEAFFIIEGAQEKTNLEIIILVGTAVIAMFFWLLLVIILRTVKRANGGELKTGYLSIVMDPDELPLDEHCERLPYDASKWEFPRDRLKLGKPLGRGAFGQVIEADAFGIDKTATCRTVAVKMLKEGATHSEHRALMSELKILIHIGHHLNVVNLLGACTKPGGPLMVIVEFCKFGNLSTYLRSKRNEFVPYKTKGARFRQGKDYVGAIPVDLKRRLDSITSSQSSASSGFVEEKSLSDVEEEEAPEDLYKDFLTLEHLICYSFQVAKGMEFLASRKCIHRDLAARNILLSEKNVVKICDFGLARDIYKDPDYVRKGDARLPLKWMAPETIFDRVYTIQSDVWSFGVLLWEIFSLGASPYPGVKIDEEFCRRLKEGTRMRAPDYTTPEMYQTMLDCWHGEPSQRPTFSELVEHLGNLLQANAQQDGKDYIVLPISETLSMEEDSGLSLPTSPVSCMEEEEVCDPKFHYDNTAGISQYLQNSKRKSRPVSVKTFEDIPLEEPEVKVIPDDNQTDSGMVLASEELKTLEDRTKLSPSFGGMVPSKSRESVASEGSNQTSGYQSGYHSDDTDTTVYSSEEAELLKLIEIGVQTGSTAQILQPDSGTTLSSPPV
Sodium-dependent dopamine transporter, sequence (Q01959 whole entry): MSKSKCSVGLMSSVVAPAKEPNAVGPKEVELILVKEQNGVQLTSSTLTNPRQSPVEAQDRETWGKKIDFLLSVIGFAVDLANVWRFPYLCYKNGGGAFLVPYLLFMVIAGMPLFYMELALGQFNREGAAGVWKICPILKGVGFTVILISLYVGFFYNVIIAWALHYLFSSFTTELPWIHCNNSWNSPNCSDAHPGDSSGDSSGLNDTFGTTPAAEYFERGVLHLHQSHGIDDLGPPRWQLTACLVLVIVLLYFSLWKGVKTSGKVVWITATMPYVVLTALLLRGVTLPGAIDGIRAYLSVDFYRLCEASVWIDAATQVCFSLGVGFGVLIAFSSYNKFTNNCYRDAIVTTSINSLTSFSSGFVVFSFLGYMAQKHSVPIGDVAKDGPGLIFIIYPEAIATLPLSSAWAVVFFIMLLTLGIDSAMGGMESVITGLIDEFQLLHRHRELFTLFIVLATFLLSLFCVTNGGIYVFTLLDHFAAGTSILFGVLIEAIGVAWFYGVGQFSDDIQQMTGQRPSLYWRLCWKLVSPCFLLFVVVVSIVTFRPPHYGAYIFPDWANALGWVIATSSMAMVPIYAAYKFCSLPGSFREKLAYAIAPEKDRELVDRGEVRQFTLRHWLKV
5-hydroxytryptamine receptor 2B, sequence (P41595 whole entry): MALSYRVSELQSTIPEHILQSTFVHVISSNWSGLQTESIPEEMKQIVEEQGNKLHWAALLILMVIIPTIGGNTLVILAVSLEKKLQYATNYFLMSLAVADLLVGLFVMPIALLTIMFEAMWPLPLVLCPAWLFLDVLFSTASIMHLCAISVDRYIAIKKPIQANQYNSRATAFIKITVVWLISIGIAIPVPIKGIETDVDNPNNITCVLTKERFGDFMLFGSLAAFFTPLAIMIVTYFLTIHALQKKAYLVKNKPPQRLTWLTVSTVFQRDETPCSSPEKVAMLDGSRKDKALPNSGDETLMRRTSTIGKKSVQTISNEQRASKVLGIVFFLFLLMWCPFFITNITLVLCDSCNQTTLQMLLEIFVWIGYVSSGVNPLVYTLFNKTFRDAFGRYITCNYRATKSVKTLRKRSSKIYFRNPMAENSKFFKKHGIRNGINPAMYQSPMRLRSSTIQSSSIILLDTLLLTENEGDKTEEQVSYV

As for `Cn1c(CCCC(=O)O)nc2cc(N(CCCl)CCCl)ccc21` [BENDAMUSTINE], the AC50 (on Thromboxane A2 receptor; in test [1]; on D(3) dopamine receptor; in test [2]; at Acetylcholinesterase; in test [3]) was more than 30 µM in each case. Moreover, the AC50 (in test [4]; at Estrogen receptor; at Prothrombin; in test [5]; at Adenosine receptor A3; in [6]) was more than 30 µM in each case. The half-maximal activity concentration (AC50) in test [7] and in test [8] was more than 30 µM in each case.
In the case of `O=c1[nH]c(=O)n([C@H]2C[C@H](O)[C@@H](CO)O2)cc1/C=C/Br` [BRIVUDINE], the AC50 (on Thromboxane A2 receptor; in test [1]; on D(3) dopamine receptor; in test [2]; at Acetylcholinesterase; in [3]) was more than 30 µM each time. The half-maximal activity concentration (AC50) (in test [4]; on Prothrombin; in test [5]; in test [9]; on Adenosine receptor A3; in [6]) was more than 30 µM each time. For the same compound, the AC50 in test [10], in test [7] and in test [8] was more than 30 µM each time.
In the case of `Nc1ccn(C[C@@H](CO)OCP(=O)(O)O)c(=O)n1` [CIDOFOVIR], the AC50 (on Thromboxane A2 receptor; in [1]; on D(3) dopamine receptor; in [2]; on Acetylcholinesterase; in test [3]) was more than 30 µM each time. The half-maximal activity concentration (AC50) (in test [4]; at Prothrombin; in [5]; in test [9]; at Adenosine receptor A3; in test [6]) was more than 30 µM in each case. For the same compound, the AC50 in test [10], in test [7] and in test [8] was more than 30 µM each time.
On to `CCn1c(=O)c2c(nc(/C=C/c3ccc(OC)c(OC)c3)n2C)n(CC)c1=O` [ISTRADEFYLLINE], for which the AC50 at Thromboxane A2 receptor was more than 30 µM; in [1], more than 30 µM; in test [2], more than 30 µM; at Acetylcholinesterase it was more than 30 µM; in test [3], more than 30 µM; in test [4], 10.5 µM. Also, the AC50 in test [5] was more than 30 µM; in test [9] it was more than 10 µM; at Adenosine receptor A3, more than 10 µM; in test [6] it was more than 30 µM; in [10], more than 30 µM; in [7], more than 30 µM. The compound also came in with an AC50 in [8] of more than 30 µM.
`CC(C)NC[C@H](O)COc1ccc(CCOCC2CC2)cc1` [LEVOBETAXOLOL]: the AC50 (on Thromboxane A2 receptor; in [1]; at D(3) dopamine receptor; in test [2]; at Acetylcholinesterase; in test [3]) was more than 30 µM in each case. Also, the AC50 (in [4]; on Prothrombin; in [5]; in [9]; at Adenosine receptor A3; in test [6]) was more than 30 µM in each case. The half-maximal activity concentration (AC50) in test [10], in test [7] and in test [8] was more than 30 µM each time.
Turning to `CC(=O)OCC(=O)[C@@]1(O)CC[C@H]2[C@@H]3C[C@H](C)C4=CC(=O)C=C[C@]4(C)[C@H]3[C@@H](O)C[C@@]21C` [METHYLPREDNISOLONE ACETATE], the AC50 (at Thromboxane A2 receptor; in [1]; on D(3) dopamine receptor; in [2]; at Acetylcholinesterase; in test [3]) was more than 30 µM throughout. In addition, the AC50 is more than 30 µM in test [4]; more than 30 µM on Estrogen receptor; 11.9 µM on Prothrombin; more than 30 µM in test [5]; more than 30 µM on Adenosine receptor A3; more than 30 µM in test [6]. For the same compound, the concentration at half-maximal activity (AC50) in test [7] and in [8] was more than 30 µM throughout.
As to `CNC(=O)c1cnn(-c2nc(N)c3ncn([C@@H]4O[C@H](CO)[C@@H](O)[C@H]4O)c3n2)c1` [REGADENOSON ANHYDROUS], the AC50 (on Thromboxane A2 receptor; in [1]; at D(3) dopamine receptor; in test [2]; on Acetylcholinesterase; in test [3]) was more than 30 µM each time. Besides, the AC50 in test [4] is more than 30 µM; at Estrogen receptor, more than 30 µM; at Prothrombin, more than 30 µM; in test [5], more than 30 µM; on Adenosine receptor A3, 0.481 µM; in test [6], more than 30 µM. For the same compound, the AC50 in test [7] and in test [8] was more than 30 µM throughout.
With `CCOC1O[C@H]([C@@H](COCc2ccccc2)OCc2ccccc2)[C@H](OCc2ccccc2)[C@H]1O` (stereo partly drawn) [TRIBENOSIDE], the AC50 was 11.9 µM at Thromboxane A2 receptor; more than 30 µM in test [1]; more than 30 µM in [2]; more than 30 µM on Acetylcholinesterase; more than 30 µM in test [3]; more than 30 µM in test [4]. Further, the AC50 at Prothrombin was more than 30 µM; in [5], more than 30 µM; in [9], more than 30 µM; on Adenosine receptor A3 it was 14 µM; in test [6] it was more than 30 µM; in [10], more than 30 µM. The AC50 in test [7] and in test [8] was more than 30 µM throughout.
Consider `N[C@@H](Cc1ccc(O)cc1)C(=O)O` [TYROSINE], for which the AC50 (on Thromboxane A2 receptor; in test [1]; at D(3) dopamine receptor; in test [2]; at Acetylcholinesterase; in test [3]) was more than 30 µM throughout. Further, the AC50 (in test [4]; at Prothrombin; in [5]; in test [9]; on Adenosine receptor A3; in test [6]) was more than 30 µM throughout. In addition, the AC50 in test [7] and in [8] was more than 30 µM each time.

(Values after ChEMBL document CHEMBL5291721, “A preclinical secondary pharmacology resource illuminates target-adverse drug reaction associations of marketed drugs” (Nat Commun, 2023).)
